Experimental data reported in patent US5510366A, “Indole derivatives, salts thereof, and congestive heart failure therapeutic agents comprising the same” (Kowa Co., Ltd., priority 1993, dated 1996).
Where a name gives a salt, the structure may show the parent alone.

Experiments:
hind-leg blood flow = assay: Action on hind-leg blood flow in anesthetized dogs; format: in vivo, Hybrid adult dogs; details: 100 μg into femoral artery; for change in vivo at 0.1 mg: Canis lupus familiaris, read-out: Rate of blood flow increase (%)
Method: <Action on hind-leg blood flow in anesthetized dogs>
Hybrid adult dogs were anesthetized by intravenous injection of 30 mg/kg of sodium pentobarbital. After administration of heparin, an extracorporeal circulation circuit was formed in femoral artery. The blood flows at hind-legs were measured by fixing an electromagnetic blood flow meter probe in the circuit. The test compound at a dose of 100 μg was administered into femoral artery via a tube provided in the circuit. The results in Table 3 show the rate of blood flow increase.

atrium specimen = assay: Inotropic action in atrium specimen and anti-chronotropic action in guinea pigs; details: Cavia porcellus; guinea pig atrium; 10^-5 M; "light atrium", left atrium stimulated at 1 Hz; read-out: Rate contraction increase (%)
Method: <Inoropic action in atrium specimen and anti-chronotropic action in guinea pigs>
After bruising on the head, guinea pigs were dehematized by sectioning carotid arteries and their heart was enucleated. Right and left atriums were taken out. These atriums were suspended in Krebs-Henseleit solution wherein 95% O2-5 % CO2 was bubbled. The tension was measured by a strain gauge and recorded via an amplifier. Pulsation at the right atrium was counted via a tachometer to determine the heart rate. Electric stimulation, twice a magnitude of the ceiling value at 1 Hz, 5 msec, was given to the left atrium. The test compound was administered at an interval of 5 minutes.
The results, shown in Table 2, indicate the rate of contraction increase of the light atrium at a dose of 10^-5 M of the test compound.

ventricular fibrillation = assay: Antiarrhythmic action against chloroform in mice (suppression of ventricular fibrillation); format: in vivo; details: Mus musculus, 20 min, 20 minutes before chloroform, read-out: Rate of suppression (%) of ventricular fibrillation
Method: <Antiarrhythmic action against chloroform in mice>
A test compound was administered to mice at a dose of 100 mg/kg. After 20 minutes, mice were placed in a pot filled with chloroform. Mice were taken out immediately after respiratory arrest. Electrocardiogram was recorded at the 11th induction, and ventricular tachycardia, ventricular fibrillation, and the time until cardiac arrest were measured.

Row | Structure (SMILES) | change in vivo at 0.1 mg (hind-leg blood flow) [%] | activation at 10 µM (atrium specimen) [%] | inhibition in vivo at 100 mg/kg (ventricular fibrillation) [%] | further results
1 | Cc1cc2c(c3c1NC(=O)C3(C)C)O[C@@H](CN)[C@@H]2C (relative stereo) [Example 3 (5) (Former component), (2R*,3R*)-2-aminomethyl-2,3,7,8-tetrahydro-3,5,8,8-tetramethyl-6H-furo 2,3-e!indol-7-one.cndot.hydrochloride] | 128 |  |  | 
2 | CC[C@H]1c2cc(C)c3c(c2O[C@H]1CN)C(C)(C)C(=O)N3 (relative stereo) [Example 7 (6)(b), (2R* ,3S*)-2-aminomethyl-3-ethyl-2,3,7,8-tetrahydro-5,8,8-trimethyl-6H-furo 2,3-e!indol-7-one.cndot.hydrochloride] |  | 27 |  | 
3 | Cc1cc2c(c3c1NC(=S)C3(C)C)O[C@@H](CN)[C@@H]2C (relative stereo) [Example 35, (2R*,3R*)-2-aminomethyl-2,3,7,8-tetrahydro-3,5,8,8-tetramethyl-6H-furo 2,3-e!indol-7-thione.cndot.hydrochloride] |  |  | 100 | 
4 | Cc1cc2c(c3c1NC(=O)C3(C)C)O[C@@](C)(CN)[C@@H]2C (relative stereo) [Example 55 (B isomer), (2R*,3R*)-2-aminomethyl-2,3,5,8,8-pentamethyl-2,3,7,8-tetrahydro-6H-furo 2 ,3-e!indol-7one.cndot.hydrochloride] | 55 | 24 |  | inhibition in vivo at 30 mg/kg (ventricular fibrillation; Dose: 30 mg/kg): 100%
5 | Cc1cc2c(c3c1NC(=O)C3(C)C)OC(CN)C2 (centres unmarked) [Example 1 (9), 2-Aminomethyl-2,3,7,8-tetrahydro-5,8,8-trimethyl-6H-furo 2,3-e!indol-7-onehydrochloride] |  | 13 |  | 
6 | Cc1cc2c(c3c1NC(=O)C3(C)C)OC(CN)C2.Cl (centres unmarked) [Example 1 (a), 2-Aminomethyl-2,3,7,8-tetrahydro-5,8,8-trimethyl-6H-furo 2,3-e!indol-7-onehydrochloride] |  |  |  | Rate of blood flow increase (%) (hind-leg blood flow): 192%
7 | Cc1cc2c(c3c1NC(=O)C3(C)C)OC(C)(CN)C2 (centres unmarked) [Example 2 (8), 2-Aminomethyl-2,3,7,8-tetrahydro-2,5,8,8-tetramethyl-6H-furo 2,3-e!indol-7-one.cndot.hydrochloride] |  | 23 |  | 
8 | Cc1cc2c(c3c1NC(=O)C3(C)C)OCC2CN (centres unmarked) [Example 13 (3), 3-Aminomethyl-2,3,7,8-tetrahydro-5,8,8-trimethyl-6H-furo 2,3-e!indol-7-one.cndot.hydrochloride] | 55 |  |  | 
9 | CNCC1Cc2cc(C)c3c(c2O1)C(C)(C)C(=O)N3 (centres unmarked) [Example 14, 2-Methylaminomethyl-2,3,7,8-tetrahydro-5,8,8-trimethyl-6H-furo 2,3-e!indol-7-one.cndot.hydrochloride] |  | 20 |  | 
10 | Cc1cc2c(c3c1NC(=O)C3(C)C)OC(CNCc1ccccc1)C2 (centres unmarked) [Example 15, 2-Benzylaminomethyl-2,3,7,8-tetrahydro-5,8,8-trimethyl-6H-furo 2,3-e!indol-7-one.cndot.hydrochloride] |  |  | 100 | 
11 | Cc1cc2c(c3c1NC(=O)C3(C)C)OC(Cn1ccnc1)C2 (centres unmarked) [Example 16, 2-(1-Imidazolyl)methyl-2,3,7,8-tetrahydro-5,8,8-trimethyl-6H-furo 2,3-e!indol-7-one.cndot.hydrochloride] | 90 |  | 90 | 
12 | Cc1cc2c(c3c1NC(=O)C3(C)C)OC(CN(C)C)C2 (centres unmarked) [Example 17, 2-Dimethylaminomethyl-2,3,7,8-tetrahydro-5,8,8-trimethyl-6H-furo 2,3-e!indol-7-one.cndot.hydrochloride] |  |  | 100 | 
13 | CCCCNCC1Cc2cc(C)c3c(c2O1)C(C)(C)C(=O)N3 (centres unmarked) [Example 18, 2-n-Butylaminomethyl-2,3,7,8-tetrahydro-5,8,8-trimethyl-6H-furo 2,3-e!indol-7-one.cndot.hydrochloride] | 145 |  |  | 
14 | Cc1cc2c(c3c1NC(=O)C3(C)C)OC(CN1CCCCC1)C2 (centres unmarked) [Example 19, 2-(1-Piperidinyl)methyl-2,3,7,8-tetrahydro-5,8,8-trimethyl-6H-furo 2,3-e!in dol-7-one.cndot.hydrochloride] |  | 28 |  | 
15 | Cc1cc2c(c3c1NC(=O)C3(C)C)OC(CN1CCN(Cc3ccccc3)CC1)C2 (centres unmarked) [Example 20, 2-(4-Benzyl-1-piperadinyl)methyl-2,3,7,8-tetrahydro-5,8,8-trimethyl-6H-furo 2,3-e!indol-7-one.cndot.dihydrochloride] | 96 |  |  | 
16 | Cc1cc2c(c3c1NC(=O)C3(C)C)OC(CN1CCNCC1)C2 (centres unmarked) [Example 22, 2-(1-Piperadinyl)methyl-2,3,7,8-tetrahydro-5,8,8-trimethyl-6H-furo 2,3-e!in dol-7-one.cndot.dihydrochloride] | 121 |  |  | 
17 | COc1ccc(C(=O)N2CCN(CC3Cc4cc(C)c5c(c4O3)C(C)(C)C(=O)N5)CC2)cc1OC (centres unmarked) [Example 23, 2-4-(3,4-dimethoxybenzoyl)-1-piperadinyl!methyl-2,3,7,8-tetrahydro-5,8,8-trimethyl-6H-furo 2,3-e!indol-7-one.cndot.hydrochloride] | 81 |  |  | 
18 | CCCCCCc1cc2c(c3c1NC(=O)C3(C)C)OC(CN)C2 (centres unmarked) [Example 25 (9), 2-Aminomethyl-8,8-dimethyl-5-n-hexyl-2,3,7,8-tetrahydro-6H-furo 2,3-e!indol-7-one.cndot.hydrochloride] |  | 46 | 100 | 
19 | CCc1cc2c(c3c1NC(=O)C3(C)C)OC(CN)C2 (centres unmarked) [Example 26 (6), 2-Aminomethyl-8,8-dimethyl-5-ethyl-2,3,7,8-tetrahydro-6H-furo 2,3-e!indol-7-one.cndot.hydrochloride] | 216 |  |  | 
20 | CCCCc1cc2c(c3c1NC(=O)C3(C)C)OC(CN)C2 (centres unmarked) [Example 28 (9)HCl, 2Aminomethyl-5-n-butyl-8,8-dimethyl-2,3,7,8-tetrahydro-6H-furo 2,3-e!indol-7-one.cndot.hydrochloride] |  |  | 90 | 
21 | Cc1c(C)c2c(c3c1CC(CN)O3)C(C)(C)C(=O)N2 (centres unmarked) [Example 30 (8)HCl, 2-Aminomethyl-2,3,7,8-tetrahydro-4,5,8,8-tetramethyl-6H-furo 2,3-e!indol-7-one.cndot.hydrochloride] |  | 28 |  | 
22 | CCOC(=O)c1cc2c3c(ccc2[nH]1)CC(CN)O3 (centres unmarked) [Example 47 (5), 2-Aminomethyl-2,3-dihydro-7-ethoxycarbonyl-6H-furo 2,3-e!indole.cndot.hydrochloride] |  |  | 90 | 
